This assay relates to immobilized GST-tagged bait protein domains. In words: ProP-PD phage selections (HD2 P8, sublibraries, HD2 P3, HD1 P8) with NGS and confidence level. It counts as binding, human. Particulars: for HD2_nucleus confidence: library HD2 P8 nucleus.
Where [1] appears, read: HD2 library, bait TLN1_PTB__Q9Y490_309_401, known motif instance of the benchmarking set found (TRUE) or not found (FALSE) among selected peptides.
Where [2] appears, read: bait CALM1_EF-hand__P0DP23_2_149, library HD2, benchmarking set of validated motif instances, TRUE = motif instance recovered in the ProP-PD selection.
Setting [3] is: bait PABP-B_PABP__P11940_544_623, HD2 library, confidence level (1-4) of best matching selected peptide.
The mark [4] stands for this setting: bait PABP-B_PABP__P11940_544_623, HD2 library, specificity score of best matching selected peptide.
Where [5] appears, read: bait PABP-B_PABP__P11940_544_623, HD2 library, whether the validated benchmark motif instance was recovered in the ProP-PD selection (TRUE/FALSE).
[6] abbreviates: library HD2, bait WDR5_WD_1234567_P61964_21_334, validated benchmark motif instance, in_library_check TRUE, TRUE/FALSE = instance recovered in ProP-PD selection.
[7] abbreviates: HD2 library, bait CALM1_EF-hand__P0DP23_2_149, benchmark motif instance, in_library_check FALSE, in_library_coverage 0.
Setting [8] is: bait PTK2_Focal-AT__Q05397_891_1050, HD2 library, whether the validated benchmark motif instance was recovered in the ProP-PD selection (TRUE/FALSE).
The mark [9] stands for this setting: library HD2, bait Keap1_KELCH__Q14145_321_609, whether the validated benchmark motif instance was recovered in the ProP-PD selection (TRUE/FALSE).
The mark [10] stands for this setting: library HD2, bait EPS15_EH__P42566_121_215, best matching peptide.
Setting [11] is: library HD2, bait EPS15_EH__P42566_121_215, confidence level of best matching peptide (4 High, 2-3 Medium, 1 Low).
Setting [12] is: library HD2, bait EPS15_EH__P42566_121_215, whether the validated benchmark motif instance was recovered in the ProP-PD selection (TRUE/FALSE).
Setting [13] is: HD2 library, bait TNKS_TANK-peptide-bind__O95271_174_649, known motif instance of the benchmarking set found (TRUE) or not found (FALSE) among selected peptides.

With KLSKLDVLLLATTYIA, where the note is “bait SIN3A_PAH__Q96ST3_295_383”, the HD2_nucleus confidence is on record as 4. Consider KMNAKWDTGENPIYKSAVTTVV, for which the motif_found entry under setting [1] is reported as “FALSE”. For KNSSCDTDDFVLVPHNISSD, the motif_found entry (bait MAP1LC3A_ATG8 (Q9H492 2-121), HD2 library, benchmark motif instance recovered in the ProP-PD selection (TRUE/FALSE)) is reported as “FALSE” and the motif_found result (bait MAP1LC3B_ATG8 (Q9GZQ8 2-119), HD2 library, benchmark motif instance recovered in the ProP-PD selection (TRUE/FALSE)) is recorded as “FALSE”.

With KRRWKKNFIAVSAANRFKKISSSGAL [MYLK2], under setting [2], the motif_found result is reported as “FALSE”.

KSTLNPNAKEFNPRSF returned a best_confidence under setting [3] of 2. Further, under setting [4], the best_specificity is given as 1. Besides, under setting [5], the motif_found result was “TRUE”.

In the case of KTAEKSDFEAVEALMSMSCSWKSD [KLF10 39-48], the motif_found result (HD2 library, bait SIN3A_PAH__Q96ST3_295_383, benchmark motif instance, in_library_check FALSE, in_library_coverage 0) was “FALSE”.

For the substance LAVNPTGCARSEPKMSAHVKR, the motif_found result under setting [6] was “FALSE”.

“LAYLRSHKDEVVKIQSLARMHQARKRYRDRLQYF [IQGAP1 806-825]”: the motif_found result under setting [7] is recorded as “FALSE”.

In turn, LDEAFSRLAQSRTNPQ came in with a best_specificity (bait AP2B1_adaptin__P63010_700_937, library HD2, best matching peptide) of 1. In addition, under “bait AP2B1_adaptin__P63010_700_937, library HD2, confidence level of best matching peptide (4 = High, 2 or 3 = Medium, 1 = Low)”, the best_confidence turned out to be 2.

LDPDKPTNFTNPVYATLYMGGH: the motif_found result under setting [1] is “FALSE”. Take LELDRLMASLSDFRVQ: the best_confidence (bait PTK2_Focal-AT__Q05397_891_1050, HD2 library, confidence level (1-4) of best matching selected peptide) was 2. The best_specificity (bait PTK2_Focal-AT__Q05397_891_1050, HD2 library, specificity score of best matching selected peptide) is 1. The motif_found result under setting [8] was “TRUE”. Consider LETKVFPRPVLPSLTV, for which, under “bait ANKRA2_Ank__Q9H9E1_142_313, library HD2 P3”, the p3_HD2 confidence came to 2. For the same substance, for the setting “bait ANKRA2_Ank__Q9H9E1_142_313, library HD2 P3, mean normalised NGS counts”, the p3_HD2 count proportions amounted to 0.06348. This substance returned a p3_HD2 mean counts (bait ANKRA2_Ank__Q9H9E1_142_313, library HD2 P3, mean raw NGS counts, all selections) of 1066. Also, the HD2 confidence (bait ANKRA2_Ank__Q9H9E1_142_313, library HD2 P8) amounted to 4. Moreover, the HD2_nc confidence (bait ANKRA2_Ank__Q9H9E1_142_313, library HD2 P8 nucleocytoplasmic) was found to be 3. This substance registered an HD2_nc count proportions (bait ANKRA2_Ank__Q9H9E1_142_313, library HD2 P8 nucleocytoplasmic, mean normalised NGS counts) of 0.1009. For the setting “bait ANKRA2_Ank__Q9H9E1_142_313, library HD2 P8 nucleocytoplasmic, mean raw NGS counts, all selections”, this substance showed an HD2_nc mean counts of 4420.0. Turning to LFCQNLPPPLPPKKYA, the p3_HD2 confidence (bait CRK_SH3_1_P46108_124_198, HD2 P3 library, confidence level (4 = High, 2-3 = Medium, 1 = Low)) is 3. Moreover, the p3_HD2 mean counts (bait CRK_SH3_1_P46108_124_198, HD2 P3 library, mean NGS counts over replicate selections) is given as 10444.0. For the setting “bait CRK_SH3_1_P46108_124_198, HD2 P3 library, mean proportion of NGS counts”, this substance came in with a p3_HD2 count proportions of 0.2023. In the case of LFKSATTTVMNPKFAES-----, under setting [1], the motif_found result is listed as “FALSE”. For the substance LHIKTHLDEETGEKTSITLD, the motif_found entry under setting [9] is reported as “FALSE”. LINVRKRNVESGEEELASKL: the motif_found entry under setting [9] is “FALSE”. Consider “LKKLPSAVIALQRSFRSKRSKMLLEINRQK [IQCB1 321-336]”, for which the motif_found result under setting [7] is recorded as “FALSE”. In the case of LKNINSINFDNPVYQKTTEDEV, the motif_found entry under setting [1] is “FALSE”. Turning to LKVLVKAVLFACMLMRK, the motif_found entry (library HD2, bait CALM1_EF-hand__P0DP23_2_149, motif instance NOT in library (in_library_check FALSE, in_library_coverage 0)) is reported as “FALSE”. In the case of LLSIHKVYEAVELLKSNHFYR [GEMIN5 992-998], where the note is “HD2 library, bait EIF4E_eIF4E__P06730_1_217, benchmark motif instance, in_library_check FALSE, in_library_coverage 0”, the motif_found result is listed as “FALSE”. In the case of LMINPTGCARSEPKILTHYKR, the motif_found entry under setting [6] is listed as “FALSE”. Regarding LNKYQGFIFDIVTK [SCN5A], under setting [2], the motif_found entry was “FALSE”. LNPFLTKSSGDVHLSI returned a best_specificity under setting [10] of 1. The same substance yielded a best_confidence under setting [11] of 4. The motif_found result under setting [12] is recorded as “TRUE”. As for LNPNAEVWGAPVLHLE, under setting [3], the best_confidence worked out at 4. The best_specificity under setting [4] turned out to be 1. In addition, under setting [5], the motif_found result is “TRUE”. In the case of LNQDFSGFQLLVDVALKRAAEM, the motif_found result (bait SIN3A_PAH__Q96ST3_295_383, HD2 library, whether the validated benchmark motif instance was recovered in the ProP-PD selection (TRUE/FALSE)) is reported as “FALSE”. As for LPIPGTPPPNYDSLRLQP, the motif_found result is listed as “FALSE” (bait NEDD4_WW_4_P46934_890_928, HD2 library, whether the validated benchmark motif instance was recovered in the ProP-PD selection (TRUE/FALSE)) and “FALSE” (library HD2, bait YAP1_WW_1_P46937_169_207, validated benchmark motif instance, in_library_check TRUE, TRUE/FALSE = instance recovered in ProP-PD selection). In the case of LPLEFSDDLDVVGDGMQC, the motif_found result under setting [6] is recorded as “FALSE”.

Take “LPLYTSPSLPNITLGLP,PLPLYTSPSLPNITLGLPATGPSA [HDAC4]”: under “bait ANKRA2_Ank__Q9H9E1_142_313, library HD2, benchmarking set of validated motif instances, TRUE = motif instance recovered in the ProP-PD selection”, the motif_found result was “TRUE”. Take LPRTQPDGTSVPGEPA: the best_specificity (HD2 library, bait TNKS_TANK-peptide-bind__O95271_174_649, best matching selected peptide) is given as 1. Moreover, the best_confidence (HD2 library, bait TNKS_TANK-peptide-bind__O95271_174_649, confidence level of best matching selected peptide) amounted to 2. The motif_found result under setting [13] is on record as “TRUE”. LQDVQPSPINPFSAFF: under setting [10], the best_specificity was found to be 1. The same substance registered a best_confidence under setting [11] of 2. In addition, the motif_found result under setting [12] is recorded as “TRUE”. Substance LQLPSLDDQVIPARLP displayed an HD confidence (bait ANKRA2_Ank__Q9H9E1_142_313, library HD) of 3. This substance also returned an HD count proportions (bait ANKRA2_Ank__Q9H9E1_142_313, library HD, mean normalised NGS counts) of 0.001339. Also, the HD mean counts (bait ANKRA2_Ank__Q9H9E1_142_313, library HD, mean raw NGS counts, all selections) worked out at 12.75. As for LQQSIAREPSAPSIPTPAYQ, the motif_found result (library HD2, bait TSG101_UEV__Q99816_1_145, validated benchmark motif instance, in_library_check TRUE, TRUE/FALSE = instance recovered in ProP-PD selection) was “FALSE”. “LQYFRDHINDIIKIQAFIRANKARDDYKTLINA [IQGAP1 836-854]”: the motif_found result under setting [7] is given as “FALSE”. In the case of “LRRGQILWFRGLNRIQTQIDVINTFQTGASFKGVLRRQNMGQHLDVKLVPSSSYIKVVKAFHSS [ATP2B4]”, the motif_found entry under setting [2] is given as “FALSE”. As for LSELDRLLLELN, under setting [8], the motif_found entry is given as “FALSE”. LSKLDVLVLAASYIAH came in with an HD2_nucleus confidence (bait SIN3A_PAH__Q96ST3_295_383) of 4. As for LSKMQQNGYENPTYKFFEQMQN, under setting [1], the motif_found result is listed as “FALSE”. On to LSLGSAGERGEAEGCPPSREAE, for which, under setting [13], the motif_found entry is recorded as “FALSE”. As to LSSPLVPGNPFEEPTCINP, the motif_found entry under setting [12] is recorded as “FALSE”.

LSVNAPEFYPSGYSSS displayed a best_confidence under setting [3] of 3. In addition, the best_specificity under setting [4] was 1. Moreover, the motif_found result under setting [5] is reported as “TRUE”. For LSVSPARWAEEYLEQSEEK, the motif_found entry (bait PEX14_Pex14__O75381_16_84, HD2 library, whether the validated benchmark motif instance was recovered in the ProP-PD selection (TRUE/FALSE)) is on record as “FALSE”. Take LSWPDLLSDPSIVGSN: under “bait CALM1 EF-hand (P0DP23, 2-149), HD2 library selection with 1mM_CaCl, confidence level (4 = High, 2 or 3 = Medium, 1 = Low)”, the HD2-1mM_CaCl confidence was found to be 3. In addition, the HD2 confidence (bait CALM1 EF-hand (P0DP23, 2-149), HD2 library selection, confidence level (4 = High, 2 or 3 = Medium, 1 = Low)) is 3. As to LYKEATSTFTNITYRGT-----, the motif_found result under setting [1] is recorded as “FALSE”. Consider LYNFPQSPPAQYSPMH, for which the HD2_nc confidence (bait CEP55_EABR__Q53EZ4_160_217, HD2 P8 nucleocytoplasmic sublibrary, confidence level (4 = High, 2-3 = Medium, 1 = Low)) was determined as 4. For the same substance, the HD2_nc mean counts (bait CEP55_EABR__Q53EZ4_160_217, HD2 P8 nucleocytoplasmic sublibrary, mean NGS counts over replicate selections) was 101.3. The HD2_nc count proportions (bait CEP55_EABR__Q53EZ4_160_217, HD2 P8 nucleocytoplasmic sublibrary, mean proportion of NGS counts) is reported as 0.001637. Where the note is “bait NEDD4_WW_4_P46934_890_928, HD2 P3 library, confidence level (4 = High, 2-3 = Medium, 1 = Low)”, LYPTDCPPSYEAVMGL showed a p3_HD2 confidence of 3. Besides, the p3_HD2 mean counts (bait NEDD4_WW_4_P46934_890_928, HD2 P3 library, mean NGS counts over replicate selections) is 285.3. Under “bait NEDD4_WW_4_P46934_890_928, HD2 P3 library, mean proportion of NGS counts”, this substance came in with a p3_HD2 count proportions of 0.005597. This substance registered an HD2_cytoplasm confidence (bait NEDD4_WW_4_P46934_890_928, HD2 P8 cytoplasm sublibrary, confidence level (4 = High, 2-3 = Medium, 1 = Low)) of 4. In the case of MDDLDALLADLESTTSHIS, under setting [8], the motif_found result is recorded as “FALSE”.

With MDVFMKGLSKAKEGVVAAA [SNCA], the motif_found entry under setting [2] is on record as “FALSE”.
